From the supplement of paper PMC11424490

Assays:
NCI-H2122 = experiment: combination cScore with sotorasib (Bliss gap around IC50) (%PoC); higher = stronger additive effect
Procedure, shortened: (§1)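 Scores represent the average Bliss-independence gap, expected minus measured viability, in a field surrounding both monotherapy IC50s, with the top concentrations used when no IC50 was reached. Cells (NCI-H2122, NCI-H358, SW837) were seeded at 500 or 800 per well in 384-well plates, dosed in matrices at 24 h and grown for 72 h, with SW837 grown for 144 h. Viability was measured by CellTiter-Glo, normalised to vehicle wells and fitted with four-parameter curves.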

SW837 = experiment: as above
Procedure, shortened: as §1

SMILES	combination cScore with sotorasib (NCI-H2122)	combination cScore with sotorasib (SW837)
CC(C)NC[C@@H](C(=O)N1CCN(c2ncnc3c2[C@H](C)C[C@H]3O)CC1)c1ccc(Cl)cc1 [Ipatasertib] + C=CC(=O)N1CCN(c2nc(=O)n(-c3c(C)ccnc3C(C)C)c3nc(-c4c(O)cccc4F)c(F)cc23)[C@@H](C)C1 [sotorasib]	12.3	11.4
CNC(=O)c1cc(Oc2ccc(NC(=O)Nc3ccc(Cl)c(C(F)(F)F)c3)c(F)c2)ccn1 [Regorafenib] + C=CC(=O)N1CCN(c2nc(=O)n(-c3c(C)ccnc3C(C)C)c3nc(-c4c(O)cccc4F)c(F)cc23)[C@@H](C)C1 [sotorasib]	7.32	-5.66
COc1cc(Nc2ncc3c(n2)-c2ccc(Cl)cc2C(c2c(F)cccc2OC)=NC3)ccc1C(=O)O [MLN8237] + C=CC(=O)N1CCN(c2nc(=O)n(-c3c(C)ccnc3C(C)C)c3nc(-c4c(O)cccc4F)c(F)cc23)[C@@H](C)C1 [sotorasib]	-3.51	10.3
C[C@H](CS)C(=O)N1CCC[C@H]1C(=O)O [Captopril] + C=CC(=O)N1CCN(c2nc(=O)n(-c3c(C)ccnc3C(C)C)c3nc(-c4c(O)cccc4F)c(F)cc23)[C@@H](C)C1 [sotorasib]	1.43	-0.1
COC(=O)c1ccc2c(c1)NC(=O)/C2=C(\Nc1ccc(N(C)C(=O)CN2CCN(C)CC2)cc1)c1ccccc1 [Nintedanib] + C=CC(=O)N1CCN(c2nc(=O)n(-c3c(C)ccnc3C(C)C)c3nc(-c4c(O)cccc4F)c(F)cc23)[C@@H](C)C1 [sotorasib]	11.8	0.78
CCN(CC)CCNC(=O)c1c(C)[nH]c(/C=C2\C(=O)Nc3ccc(F)cc32)c1C [Sunitinib] + C=CC(=O)N1CCN(c2nc(=O)n(-c3c(C)ccnc3C(C)C)c3nc(-c4c(O)cccc4F)c(F)cc23)[C@@H](C)C1 [sotorasib]	10.9	23
CNC(=O)c1ccc(N2C(=S)N(c3ccc(C#N)c(C(F)(F)F)c3)C(=O)C2(C)C)cc1F [Enzalutamide] + C=CC(=O)N1CCN(c2nc(=O)n(-c3c(C)ccnc3C(C)C)c3nc(-c4c(O)cccc4F)c(F)cc23)[C@@H](C)C1 [sotorasib]	6.62	5.64
Nc1nc(Cl)nc2c1ncn2[C@@H]1O[C@H](CO)[C@@H](O)[C@@H]1F [Clofarabine] + C=CC(=O)N1CCN(c2nc(=O)n(-c3c(C)ccnc3C(C)C)c3nc(-c4c(O)cccc4F)c(F)cc23)[C@@H](C)C1 [sotorasib]	1	3.33
Nc1ccn([C@@H]2O[C@H](CO)[C@@H](O)C2(F)F)c(=O)n1 [Gemcitabine] + C=CC(=O)N1CCN(c2nc(=O)n(-c3c(C)ccnc3C(C)C)c3nc(-c4c(O)cccc4F)c(F)cc23)[C@@H](C)C1 [sotorasib]	3.14	1.12
N[C@@H](Cc1ccc(N(CCCl)CCCl)cc1)C(=O)O [Melphalan] + C=CC(=O)N1CCN(c2nc(=O)n(-c3c(C)ccnc3C(C)C)c3nc(-c4c(O)cccc4F)c(F)cc23)[C@@H](C)C1 [sotorasib]	2.92	4.26
Nc1ccn([C@@H]2O[C@H](CO)[C@@H](O)[C@@H]2O)c(=O)n1 [Cytarabin] + C=CC(=O)N1CCN(c2nc(=O)n(-c3c(C)ccnc3C(C)C)c3nc(-c4c(O)cccc4F)c(F)cc23)[C@@H](C)C1 [sotorasib]	5.6	8.17
CN(NC(=O)CC(=O)NN(C)C(=S)c1ccccc1)C(=S)c1ccccc1 [Elesclomol] + C=CC(=O)N1CCN(c2nc(=O)n(-c3c(C)ccnc3C(C)C)c3nc(-c4c(O)cccc4F)c(F)cc23)[C@@H](C)C1 [sotorasib]	13.6	13.4
CC(=O)O[C@@]12CO[C@@H]1C[C@H](O)[C@@]1(C)C(=O)[C@H](O)C3=C(C)[C@@H](OC(=O)[C@H](O)[C@@H](NC(=O)OC(C)(C)C)c4ccccc4)C[C@@](O)([C@@H](OC(=O)c4ccccc4)[C@H]21)C3(C)C [Docetaxel] + C=CC(=O)N1CCN(c2nc(=O)n(-c3c(C)ccnc3C(C)C)c3nc(-c4c(O)cccc4F)c(F)cc23)[C@@H](C)C1 [sotorasib]	1.66	3.98
CO[C@H]1C[C@@H]2CC[C@@H](C)[C@@](O)(O2)C(=O)C(=O)N2CCCC[C@H]2C(=O)O[C@H]([C@H](C)C[C@@H]2CC[C@@H](OCCO)[C@H](OC)C2)CC(=O)[C@H](C)/C=C(\C)[C@@H](O)[C@@H](OC)C(=O)[C@H](C)C[C@H](C)/C=C/C=C/C=C/1C [Everolimus] + C=CC(=O)N1CCN(c2nc(=O)n(-c3c(C)ccnc3C(C)C)c3nc(-c4c(O)cccc4F)c(F)cc23)[C@@H](C)C1 [sotorasib]	4.54	-4.84
O=C(Cc1ccccc1)Nc1nnc(CCSCCc2nnc(NC(=O)Cc3ccccc3)s2)s1 [BPTES] + C=CC(=O)N1CCN(c2nc(=O)n(-c3c(C)ccnc3C(C)C)c3nc(-c4c(O)cccc4F)c(F)cc23)[C@@H](C)C1 [sotorasib]	4.36	-3.09
NC(=O)c1ccc(-c2nc(-c3ccccn3)c(-c3ccc4c(c3)OCO4)[nH]2)cc1 + C=CC(=O)N1CCN(c2nc(=O)n(-c3c(C)ccnc3C(C)C)c3nc(-c4c(O)cccc4F)c(F)cc23)[C@@H](C)C1 [sotorasib]	3.33	4.91
CO[C@H]1C[C@@H]2CC[C@@H](C)[C@@](O)(O2)C(=O)C(=O)N2CCCC[C@H]2C(=O)O[C@H]([C@H](C)C[C@@H]2CC[C@@H](O)[C@H](OC)C2)CC(=O)[C@H](C)/C=C(\C)[C@@H](O)[C@@H](OC)C(=O)[C@H](C)C[C@H](C)/C=C/C=C/C=C/1C [Rapamycin] + C=CC(=O)N1CCN(c2nc(=O)n(-c3c(C)ccnc3C(C)C)c3nc(-c4c(O)cccc4F)c(F)cc23)[C@@H](C)C1 [sotorasib]	13.4	10.2
N#CN=C(NCCCCCCOc1ccc(Cl)cc1)Nc1ccncc1 [GMX1778] + C=CC(=O)N1CCN(c2nc(=O)n(-c3c(C)ccnc3C(C)C)c3nc(-c4c(O)cccc4F)c(F)cc23)[C@@H](C)C1 [sotorasib]	-13.8	7.36
CN[C@H]1CN(c2ccc3c(=O)c(C(=O)O)cn(-c4nccs4)c3n2)C[C@@H]1OC [Vosaroxin] + C=CC(=O)N1CCN(c2nc(=O)n(-c3c(C)ccnc3C(C)C)c3nc(-c4c(O)cccc4F)c(F)cc23)[C@@H](C)C1 [sotorasib]	13.3	13.2
CC(O)(CS(=O)(=O)c1ccc(F)cc1)C(=O)Nc1ccc(C#N)c(C(F)(F)F)c1 (configuration not stated) [Bicalutamide] + C=CC(=O)N1CCN(c2nc(=O)n(-c3c(C)ccnc3C(C)C)c3nc(-c4c(O)cccc4F)c(F)cc23)[C@@H](C)C1 [sotorasib]	3.68	-1.56
CNC(=O)c1cc(Oc2ccc(NC(=O)Nc3ccc(Cl)c(C(F)(F)F)c3)cc2)ccn1 [Sorafenib] + C=CC(=O)N1CCN(c2nc(=O)n(-c3c(C)ccnc3C(C)C)c3nc(-c4c(O)cccc4F)c(F)cc23)[C@@H](C)C1 [sotorasib]	4.75	-8.41
CS(=O)(=O)c1ccc(-c2cnc(N)c(C(=O)Nc3ccccc3)n2)cc1 [VE-821] + C=CC(=O)N1CCN(c2nc(=O)n(-c3c(C)ccnc3C(C)C)c3nc(-c4c(O)cccc4F)c(F)cc23)[C@@H](C)C1 [sotorasib]	6.24	6.3
CN1CCN(c2ccc(-c3cccc(CN4CCOCC4)c3)cc2NC(=O)c2c[nH]c(=O)cc2C(F)(F)F)CC1 [OICR-9429] + C=CC(=O)N1CCN(c2nc(=O)n(-c3c(C)ccnc3C(C)C)c3nc(-c4c(O)cccc4F)c(F)cc23)[C@@H](C)C1 [sotorasib]	9.62	3.36
CC(=O)Nc1cccc(-n2c(=O)n(C3CC3)c(=O)c3c(Nc4ccc(I)cc4F)n(C)c(=O)c(C)c32)c1 [Trametinib] + C=CC(=O)N1CCN(c2nc(=O)n(-c3c(C)ccnc3C(C)C)c3nc(-c4c(O)cccc4F)c(F)cc23)[C@@H](C)C1 [sotorasib]	14.2	14.5
CC(C)C[C@@H](C(=O)N[C@H](C(=O)OC1CCCC1)c1ccccc1)[C@H](O)C(=O)NO [Tosedostat] + C=CC(=O)N1CCN(c2nc(=O)n(-c3c(C)ccnc3C(C)C)c3nc(-c4c(O)cccc4F)c(F)cc23)[C@@H](C)C1 [sotorasib]	10.4	31.5
COc1ccccc1-c1cc(Nc2cccc(CS(N)(=O)=O)c2)ncn1 [LDC-067] + C=CC(=O)N1CCN(c2nc(=O)n(-c3c(C)ccnc3C(C)C)c3nc(-c4c(O)cccc4F)c(F)cc23)[C@@H](C)C1 [sotorasib]	5.31	11.1
